Data as given in patent US20240270748A1 (Merck Patent GmbH, priority 2021, published 2024).

Assays:
YAP-TEAD interaction = test: SK-HEP-1 reporter assay (8xTEAD responsive elements driving NanoLuc luciferase); format: cell-based
Outline: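 Reporter read-out: NanoLuc luminescence from 8×TEAD elements stably integrated in SK-HEP-1 cells, after 24 h compound exposure at 37° C. Ten concentrations tested in duplicate, top 30 μM final, 0.3% DMSO; IC50 from curve.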

NCI-H226 cells = test: Viability assay in NCI-H226 (Yap-dependent) cells, CyQuant; format: cell-based, human; details: Homo sapiens, NCI-H226, 96 h, class symbols
Outline: (§1)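 Seeded cells were dosed 24 h later in duplicate (10-point, 1:3 dilutions, top 30 μM final, 0.3% DMSO) and incubated 96 h at 37 °C. Viability was read with CyQUANT DNA dye after 1 h, fluorescence bottom read. NCI-H226 in RPMI 1640 medium; SW620 YAP/TAZ CRISPR knockout in DMEM/F-12 medium.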

SW620 Yap KO cells = test: Viability assay in SW620 Yap KO (Yap independent) cells, CyQuant; format: cell-based; details: Homo sapiens, SW-620, 96 h
Outline: as §1

[1] = Homo sapiens, SK-HEP1, SK-HEP-1 reporter assay, class symbols
[2] = n.d. = value not detectable below threshold given in parentheses, ND = not determinable within the entire range
[3] = n.d. = value not detectable below threshold given in parentheses
[4] = Homo sapiens, SK-HEP1, SK-HEP-1 reporter assay, n.d. = value not detectable below threshold given in parentheses
[5] = Homo sapiens, SK-HEP1, SK-HEP-1 reporter assay, n.d. = value not detectable below threshold given in parentheses, ND = not determinable within the entire range

SMILES	IC50 (YAP-TEAD interaction; [1]) [nM]	IC50 (NCI-H226 cells) [nM]	IC50 (SW620 Yap KO cells; [2]) [nM]	IC50 (SW620 Yap KO cells; [3]) [nM]	IC50 (SW620 Yap KO cells; class symbols) [nM]	IC50 (YAP-TEAD interaction; SK-HEP-1 reporter assay, class symbols) [nM]	IC50 (YAP-TEAD interaction; [4]) [nM]	IC50 (YAP-TEAD interaction; [5]) [nM]
Cc1snc2c1c1cc(C(=O)NCc3ccncc3)ccc1n2-c1ccc(C(F)(F)F)cc1 [Example C62, 3-methyl-N-[(pyridin-4-yl)methyl]-8-[4-(trifluoromethyl)phenyl]-8H-[1,2]thiazolo[3,4-b]indole-5-carboxamide]	10 to 100	1 to 100	> 3200	–	–	–	–	–
Cn1cnc2c1c1cc(C3CC(Oc4cncnc4)=NO3)ccc1n2-c1ccc(C(F)(F)F)cc1 (stereo not drawn) [Example 40, 5-[(5-{1-methyl-4-[4-(trifluoromethyl)phenyl]-1H,4H-imidazo[4,5-b]indol-7-yl}-4,5-dihydro-1,2-oxazol-3-yl)oxy]pyrimidine]	–	> 10000	–	–	> 30000	10 to 100	–	–
C[C@H](CO)NC(=O)c1ccc2c(c1)c1cn(C)nc1n2-c1ccc(C(F)(F)F)cn1 [Example C148, N-[(2R)-1-hydroxypropan-2-yl]-2-methyl-8-[5-(trifluoromethyl)pyridin-2-yl]-2H,8H-pyrazolo[3,4-b]indole-5-carboxamide]	10 to 100	1 to 100	> 30000	–	–	–	–	–
O=C(O)c1ccc2c(c1)c1cn(C(F)(F)F)nc1n2-c1ccc(C(F)(F)F)cc1 [Example C35, 2-(trifluoromethyl)-8-[4-(trifluoromethyl)phenyl]-2H,8H-pyrazolo[3,4-b]indole-5-carboxylic acid]	10 to 100	1000 to 10000	> 30000	–	–	–	–	–
Cn1cc2c3cc(C(=O)O)ccc3n(-c3ccc(C(F)(F)F)cn3)c2n1 [Example C126, 2-methyl-8-[5-(trifluoromethyl)pyridin-2-yl]-2H,8H-pyrazolo[3,4-b]indole-5-carboxylic acid]	10 to 100	100 to 1000	> 3000	–	–	–	–	–
Cn1cc2c3cc(C(=O)N=[S@@](=O)(CCCO)Cc4ccncc4)ccc3n(-c3ccc(C(F)(F)F)cc3)c2n1 (single isomer, unassigned) [Example C231]	–	100 to 1000	–	> 3000	–	–	> 300	–
CNC(=O)c1cnc2c(c1)c1cn(C)nc1n2-c1ccc(C(F)(F)F)cc1 [Example C227, N,4-dimethyl-7-[4-(trifluoromethyl)-phenyl]-4,5,7,9-tetraazatricyclo [6.4.0.0^2,6]dodeca-1(8),2,5,9,11-pentaene-11-carboxamide]	10 to 100	1 to 100	–	> 30000	–	–	–	–
Cc1snc2c1c1cc(C(=O)NCCO)ccc1n2-c1ccc(C(F)(F)F)cc1 [Example C65, N-(2-hydroxyethyl)-3-methyl-8-[4-(trifluoromethyl)phenyl]-8H-[1,2]thiazolo[3,4-b]indole-5-carboxamide]	10 to 100	1 to 100	> 3200	–	–	–	–	–
Cn1nc2c3cc(C(=O)N=[S@@](=O)(CCCO)Cc4cccnc4)ccc3n(-c3ccc(C(F)(F)F)cc3)c2n1 (single isomer, unassigned) [Example C200]	–	100 to 1000	–	> 3000	–	–	> 9500	–
Cc1snc2c1c1cc(C(=O)N=S(C)(=O)CCO)ccc1n2-c1ccc(C(F)(F)F)cc1 (stereo not drawn) [Example C30, N-[(2-hydroxyethyl)(methyl)oxo-¿6-sulfanylidene]-3-methyl-8-[4-(trifluoromethyl)phenyl]-8H-[1,2]thiazolo[3,4-b]indole-5-carboxamide]	10 to 100	1 to 100	> 3000	–	–	–	–	–
Cn1cc2c3nc(C(=O)N=S(C)(C)=O)ccc3n(-c3ccc(C(F)(F)F)cc3)c2n1 [Example C108, N-[dimethyl(oxo)-λ^6-sulfanylidene]-4-methyl-7-[4-(trifluoromethyl)phenyl]-4,5,7,12-tetraazatricyclo [6.4.0.0^∧{^2,6}]dodeca-1(8),2,5,9,11-pentaene-11-carboxamide]	–	100 to 1000	> 30000	–	–	–	–	> 30000
CNC(=O)c1ccc2c(c1)c1c(C)snc1n2-c1ccc(C(F)(F)F)cc1 [Example C51, N,3-dimethyl-8-[4-(trifluoromethyl)phenyl]-8H-[1,2]thiazolo[3,4-b]indole-5-carboxamide]	10 to 100	1 to 100	–	–	1000 to 10000	–	–	–
Cn1nc2c3cc(C(=O)N=S4(=O)CCNCC4)ccc3n(-c3ccc(C(F)(F)F)cc3)c2n1 [Example C261, 2-methyl-N-(1-oxo-1lambda6-thiomorpholin-1-ylidene)-4-[4-(trifluoromethyl)phenyl]-2H,4H-[1,2,3]triazolo[4,5-b]indole-7-carboxamide]	10 to 100	1 to 100	–	> 30000	–	–	–	–
Cc1snc2c1c1cc(C(=O)NC3CC3)ccc1n2-c1ccc(C(F)(F)F)cc1 [Example C41, N-cyclopropyl-3-methyl-8-[4-(trifluoromethyl)phenyl]-8H-[1,2]thiazolo [3,4-b]indole-5-carboxamide]	10 to 100	1 to 100	> 30000	–	–	–	–	–
Cc1snc2c1c1cc(C(=O)N=S(C)(=O)CCO)ccc1n2-c1ccc(C(F)(F)F)cc1 (single isomer, unassigned) [Example C102]	10 to 100	1 to 100	> 30000	–	–	–	–	–
Cn1cc2c3cc(C4CC(Cl)=NO4)ccc3n(-c3ccc(C(F)(F)F)cc3)c2n1 (stereo not drawn) [Example C17, 3-chloro-5-{2-methyl-8-[4-(trifluoromethyl)phenyl]-2H,8H-pyrazolo[3,4-b]indol-5-yl}-4,5-dihydro-1,2-oxazole]	10 to 100	1 to 100	> 30000	–	–	–	–	–
Cn1cc2c3nc(C(=O)N=S(C)(=O)CCCO)ccc3n(-c3ccc(C(F)(F)F)cc3)c2n1 (stereo not drawn) [Example C117, N-[(3-hydroxypropyl)(methyl)oxo- \6-sulfanylidene]-4-methyl-7-[4-(trifluoromethyl)phenyl]-4,5,7,12-tetraazatricyclo[6.4.0.0^2,6∧{2,6}]dodeca-1(8),2,5,9,11-pentaene-11-carboxamide]	–	100 to 1000	> 30000	–	–	–	–	> 1000

More lines, now with the values ahead:

IC50 (YAP-TEAD interaction; [1]) [nM]	IC50 (NCI-H226 cells) [nM]	IC50 (SW620 Yap KO cells; [2]) [nM]	IC50 (SW620 Yap KO cells; [3]) [nM]	IC50 (SW620 Yap KO cells; class symbols) [nM]	IC50 (YAP-TEAD interaction; SK-HEP-1 reporter assay, class symbols) [nM]	IC50 (YAP-TEAD interaction; [4]) [nM]	IC50 (YAP-TEAD interaction; [5]) [nM]	SMILES
10 to 100	1 to 100	> 30000	–	–	–	–	–	Cc1c2c3cc(C(=O)N[C@H](C)CO)ccc3n(-c3ccc(C(F)(F)F)cc3)c2nn1C [Example C97, N-[(2R)-1-hydroxypropan-2-yl]-2,3-dimethyl-8-[4-(trifluoromethyl)phenyl]-2H,8H-pyrazolo[3,4-b]indole-5-carboxamide]
10 to 100	1 to 100	–	> 30000	–	–	–	–	Cn1cc2c3cc(C(=O)NC(CO)c4cscn4)ccc3n(-c3ccc(C(F)(F)F)cc3)c2n1 (stereo not drawn) [Example C277, N-[2-hydroxy-1-(1,3-thiazol-4-yl)ethyl]-2-methyl-8-[4-(trifluoromethyl)phenyl]-2H,8H-pyrazolo[3,4-b]indole-5-carboxamide]
10 to 100	1 to 100	–	> 3000	–	–	–	–	Cn1cc2c3cc(C(=O)N[C@@H](CCO)c4ccccn4)ccc3n(-c3ccc(C(F)(F)F)cc3)c2n1 (single isomer, unassigned) [Example C240]
10 to 100	1 to 100	–	> 30000	–	–	–	–	C[C@H](NC(=O)c1ccc2c(c1)c1nn(C)nc1n2-c1ccc(C(F)(F)F)cc1)c1ccccn1 [Example C184, 2-methyl-N-[(1S)-1-(pyridin-2-yl)ethyl]-4-[4-(trifluoromethyl)phenyl]-2H,4H-[1,2,3]triazolo[4,5-b]indole-7-carboxamide]
10 to 100	1 to 100	–	–	10000 to 30000	–	–	–	Cc1c2c3cc(C(=O)N[C@@H](CO)c4ccccn4)ccc3n(-c3ccc(C(F)(F)F)cc3)c2nn1C [Example C99, N-[(1R)-2-hydroxy-1-(pyridin-2-yl)ethyl]-2,3-dimethyl-8-[4-(trifluoromethyl)phenyl]-2H,8H-pyrazolo[3,4-b]indole-5-carboxamide]
10 to 100	100 to 1000	–	–	1000 to 10000	–	–	–	Cn1nc2c3cc(C(=O)N=[S@@](=O)(CCO)Cc4ccccn4)ccc3n(-c3ccc(C(F)(F)F)cc3)c2n1 (single isomer, unassigned) [Example C157]
10 to 100	1 to 100	> 3200	–	–	–	–	–	CC[C@H](CO)NC(=O)c1ccc2c(c1)c1c(C)snc1n2-c1ccc(C(F)(F)F)cc1 [Example C77, N-[(2R)-1-hydroxybutan-2-yl]-3-methyl-8-[4-(trifluoromethyl)phenyl]-8H-[1,2]thiazolo[3,4-b]indole-5-carboxamide]
10 to 100	1 to 100	> 3200	–	–	–	–	–	Cc1snc2c1c1cc(C(=O)N[C@H](C)CO)ccc1n2-c1ccc(C(F)(F)F)cc1 [Example C66, N-[(2R)-1-hydroxypropan-2-yl]-3-methyl-8-[4-(trifluoromethyl)phenyl]-8H-[1,2]thiazolo[3,4-b]indole-5-carboxamide]
10 to 100	1 to 100	> 30000	–	–	–	–	–	Cn1cc2c3cc(C(=O)NCc4ccccc4)ccc3n(-c3ccc(C(F)(F)F)cc3)c2n1 [Example C56, N-benzyl-2-methyl-8-[4-(trifluoromethyl)phenyl]-2H,8H-pyrazolo[3,4-b]indole-5-carboxamide]
100 to 10000	1 to 100	–	> 30000	–	–	–	–	C[C@@H](NC(=O)c1ccc2c(c1)c1cn(C)nc1n2-c1ccc(C(F)(F)F)cc1)c1ccc(N)nc1 [Example C257, N-[(1R)-1-(6-aminopyridin-3-yl)ethyl]-2-methyl-8-[4-(trifluoromethyl)phenyl]-2H,8H-pyrazolo[3,4-b]indole-5-carboxamide]
